Residue numbers refer to the chain shown, from its start. Where a SMILES comes first, the peptide text is derived from it.
Assays:
[1] = target: T1, hTAS1R2 + hTAS1R3 V621I^2.58 (Homo sapiens, UniProt Q7RTX0+Q8TE23, V621I); test: Calcium response (FLIPR), hTAS1R3 mutant coexpressed with hTAS1R2; format: cell-based; settings: variant V621I^2.58; for EC50: (>) EC50 not calculable because saturation is not reached; for Emax: read-out: maximal signal (% of wt)
T1 construct: expressed in transfected cells; host or cells: HEK293T cells stably expressing G16Gust44
T1 sequence (Q8TE23 20-839): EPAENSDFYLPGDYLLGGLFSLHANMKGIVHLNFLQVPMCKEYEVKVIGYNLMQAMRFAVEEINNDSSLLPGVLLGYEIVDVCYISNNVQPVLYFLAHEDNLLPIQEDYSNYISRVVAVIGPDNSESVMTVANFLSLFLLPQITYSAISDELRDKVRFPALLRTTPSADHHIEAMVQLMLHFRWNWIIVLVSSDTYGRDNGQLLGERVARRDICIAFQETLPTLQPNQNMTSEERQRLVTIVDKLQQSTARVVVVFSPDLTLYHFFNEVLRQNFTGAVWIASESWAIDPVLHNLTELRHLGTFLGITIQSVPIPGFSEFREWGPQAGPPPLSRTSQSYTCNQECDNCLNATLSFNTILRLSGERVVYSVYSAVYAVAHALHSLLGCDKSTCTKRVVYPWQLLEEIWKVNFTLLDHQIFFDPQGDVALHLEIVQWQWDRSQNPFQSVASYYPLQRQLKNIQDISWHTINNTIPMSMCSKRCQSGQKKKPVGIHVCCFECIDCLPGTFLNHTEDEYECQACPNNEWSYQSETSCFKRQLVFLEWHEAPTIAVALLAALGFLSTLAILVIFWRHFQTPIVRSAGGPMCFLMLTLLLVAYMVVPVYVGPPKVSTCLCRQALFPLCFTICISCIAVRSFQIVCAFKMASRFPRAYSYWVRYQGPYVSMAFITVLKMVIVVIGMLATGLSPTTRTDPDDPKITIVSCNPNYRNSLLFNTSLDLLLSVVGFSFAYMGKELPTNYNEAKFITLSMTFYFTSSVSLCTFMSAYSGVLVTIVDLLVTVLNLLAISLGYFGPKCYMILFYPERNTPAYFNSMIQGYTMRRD
T1 sequence (Q7RTX0 21-852 V621I): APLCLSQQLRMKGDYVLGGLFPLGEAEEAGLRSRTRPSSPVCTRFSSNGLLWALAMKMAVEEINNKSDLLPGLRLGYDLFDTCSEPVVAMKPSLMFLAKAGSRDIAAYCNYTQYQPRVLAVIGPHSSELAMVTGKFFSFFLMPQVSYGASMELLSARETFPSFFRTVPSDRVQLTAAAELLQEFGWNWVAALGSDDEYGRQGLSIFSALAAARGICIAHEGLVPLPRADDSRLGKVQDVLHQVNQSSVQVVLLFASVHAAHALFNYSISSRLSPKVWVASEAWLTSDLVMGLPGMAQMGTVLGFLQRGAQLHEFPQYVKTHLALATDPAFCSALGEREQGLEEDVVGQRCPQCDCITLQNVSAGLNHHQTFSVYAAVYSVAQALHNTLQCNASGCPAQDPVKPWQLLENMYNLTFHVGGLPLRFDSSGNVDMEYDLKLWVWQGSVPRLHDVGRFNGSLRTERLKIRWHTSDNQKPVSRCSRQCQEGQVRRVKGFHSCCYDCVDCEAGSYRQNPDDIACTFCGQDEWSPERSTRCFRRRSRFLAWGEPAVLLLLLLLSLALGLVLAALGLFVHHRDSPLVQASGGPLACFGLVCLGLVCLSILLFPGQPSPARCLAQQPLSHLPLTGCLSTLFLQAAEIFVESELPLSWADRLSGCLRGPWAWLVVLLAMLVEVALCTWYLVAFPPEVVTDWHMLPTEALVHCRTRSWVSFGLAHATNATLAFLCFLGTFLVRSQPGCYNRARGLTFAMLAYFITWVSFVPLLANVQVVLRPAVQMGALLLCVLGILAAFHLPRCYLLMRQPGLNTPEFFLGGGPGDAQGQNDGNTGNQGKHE
In short: (§1)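 HEK293T/G16Gust44, transient transfection of HSV-tagged TAS1R2 + TAS1R3 mutants; Fluo4-AM loading 1 h at 24 h; sweet tastants in C1 solution; FLIPR Ca2+ read; ΔF/F, mock-subtracted; ≥3 independent expts in duplicate.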

[2] = target: T2, hTAS1R2 + hTAS1R3 H721A^ex2 (Homo sapiens, UniProt Q7RTX0+Q8TE23, H721A); test: as above; format: cell-based; settings: variant H721A^ex2; for Emax: read-out: maximal signal (% of wt)
T2 construct: expressed in transfected cells; host or cells: HEK293T cells stably expressing G16Gust44
T2 sequence (Q8TE23 20-839): T1 sequence (Q8TE23 20-839)
T2 sequence (Q7RTX0 21-852 H721A): T1 sequence (Q7RTX0 21-852 V621I) with I601V, H701A
In short: as §1

Row | EC50 [1] [µM] | Emax [1] [%] | EC50 [2] [µM] | Emax [2] [%] | Structure (SMILES)
1 | > 1000 | 60 ± 14 | 800 ± 300 | 66 ± 10 | COc1ccc(CCC(=O)c2c(O)cc(O[C@@H]3O[C@H](CO)[C@@H](O)[C@H](O)[C@H]3O[C@@H]3O[C@@H](C)[C@H](O)[C@@H](O)[C@H]3O)cc2O)cc1O [NHDC, neohesperidin dihydrochalcone]
2 | 1900 ± 400 | 61 ± 1 | 1600 ± 300 | 60 ± 40 | COC(=O)[C@H](Cc1ccccc1)NC(=O)[C@@H](N)CC(=O)O [aspartame] (HELM PEPTIDE1{D.F.[CO[*:1]]}$$$$V2.0)

Source: PMC2099433, “The binding site for neohesperidin dihydrochalcone at the human sweet taste receptor” (BMC Structural Biology, 2007)
